The record followed here is patent publication US5153201A, “Condensed thiazole compounds and use as pharmaceuticals” (Takeda Chemical Industries, Ltd., priority 1990, dated 1992).

This test relates to excitatory behavior induced by spinal intrathecal injection of FeCl2 in mice. Kind of test: Effects of drugs on the excitatory behavior induced by spinal intrathecal injection of FeCl2 in mice. The conditions noted are these: for Percent inhibition (%): inhibition of mean behavioral score versus saline, 100 mg/kg orally 30 min. prior to FeCl2 injection, mice; for Average score, administration of compound (100 mg/kg): male Slc:ICP mice (5 weeks), 100 mg/kg orally 30 min. prior to FeCl2 (5 μl of 50 mM, intrathecal), observed 15 min. to 1 hr., score 0 normal to 5 death. Type of test: in vivo. As for the experimental part: Effects of drugs on the excitatory behavior induced by spinal intrathecal injection of FeCl2 in mice Male Slc:ICP mice (5 weeks) were used. Each group consisted of 10 mice. 5 μl of 50 mM FeCl2 in saline was injected into spinal subarchnoid space between the 1st sacral and the 6th lumbar segment, the behavioral responses were observed from 15 min. to 1 hr. after the intrathecal injection of FeCl2 and scored as follows. |Score Behavioral responses |0: normal (no abnormal behavior) |1: vigorously biting lower abdomen or lower | extremities |2: a) extremely biting lower body with rolling | b) hyperreactivity and […] to external stimuli | c) tremor | at least one of above three behavioral changes were | observed |3: clonic convulsion |4: tonic convulsion or paralysis of lower extremities. |5: death The test compounds (100 mg/kg) were orally administered 30 min. prior to FeCl2 injection.

On to `CCn1cc(C=Cc2nc3c(s2)NCCC3)nc1-c1ccccc1` [Example 6, 2-{2-(1-Ethyl-2-phenylimidazole-4-yl)ethenyl}-4,5,6,7-tetrahydrothiazolo[5,4-b]pyridine], for which the “Percent inhibition (%)” value is recorded as 97.9% and the “Average score, administration of compound (100 mg/kg)” value is given as 0.1.
For `Cc1ccc(-c2nc3c(s2)NCCC3)cc1N` [Example 2, 2-(3-Amino-4-methylphenyl)-4,5,6,7-tetrahydrothiazolo[5,4-b]pyridine], in that order: 85.1% and 0.7.
For `Cl.Cl.Cn1cnc(C=Cc2nc3c(s2)NCCC3)c1` [Example 5, 2-{2-(1-Methylimidazole-4-yl)ethenyl}-4,5,6,7-tetrahydrothiazolo[5,4-b]pyridine dihydrochloride], in that order: 91.3% and 0.4.
With `Cc1ccc(-c2nc3c(s2)NCCC3)cc1N.Cl.Cl` [Example 3, 2-(3-Amino-4-methylphenyl)-4,5,6,7-tetrahydrothiazolo[5,4-b]pyridine dihydrochloride], the “Percent inhibition (%)” value was 80.9% and the “Average score, administration of compound (100 mg/kg)” value was 0.9.
In the same order, the values of `COc1cccc(C=Cc2nc3c(s2)NCCC3)c1OC` [Example 1, 2-(2,3-Dimethoxystyryl)-4,5,6,7-tetrahydrothiazolo[5,4-b]pyridine] are 82.6% and 0.8.
